Data: patent US10730874B2 (Shire Human Genetic Therapies, Inc., priority 2018, dated 2020)

Target: human activated kallikrein enzyme (plasma kallikrein) (Homo sapiens (Human), UniProt P03952)
Test: Inhibition of human activated plasma kallikrein, fluorogenic peptide substrate assay, 500 pM enzyme format
Assay type: biochemical
Settings: not given
Method in brief: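 Buffer 20 mM Tris pH 7.5, EDTA, NaCl, PEG-400, Triton X-100; 300 uM Pro-Phe-Arg-AMC; enzyme–inhibitor preincubation 30 min RT. Format one: 500 pM kallikrein, 10 min RT reaction; format two: 5 pM kallikrein, 18 h RT reaction. Fluorescence read at 460 nm (380 nm excitation).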

Sequence of human activated kallikrein enzyme (plasma kallikrein) (P03952 391-638): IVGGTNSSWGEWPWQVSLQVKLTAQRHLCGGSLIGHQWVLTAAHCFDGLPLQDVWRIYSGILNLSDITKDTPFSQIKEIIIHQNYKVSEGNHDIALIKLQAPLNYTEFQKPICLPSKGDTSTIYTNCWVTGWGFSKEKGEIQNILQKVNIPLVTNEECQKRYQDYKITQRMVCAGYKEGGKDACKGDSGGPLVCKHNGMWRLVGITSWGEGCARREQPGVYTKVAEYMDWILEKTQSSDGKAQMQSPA
Sequence of human activated kallikrein enzyme (plasma kallikrein) (P03952 20-390 partner): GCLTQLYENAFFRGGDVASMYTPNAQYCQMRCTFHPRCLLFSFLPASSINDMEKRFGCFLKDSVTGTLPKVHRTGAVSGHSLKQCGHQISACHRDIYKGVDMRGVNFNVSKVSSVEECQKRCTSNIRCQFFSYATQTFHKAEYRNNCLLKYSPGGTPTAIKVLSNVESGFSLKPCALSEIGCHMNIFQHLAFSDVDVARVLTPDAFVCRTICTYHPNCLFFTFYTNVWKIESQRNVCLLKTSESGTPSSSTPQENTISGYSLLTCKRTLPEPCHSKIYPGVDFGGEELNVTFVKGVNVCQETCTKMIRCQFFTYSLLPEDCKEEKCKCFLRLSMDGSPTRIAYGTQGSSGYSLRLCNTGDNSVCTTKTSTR

| SMILES | EC50 |
| --- | --- |
| O=C(NCc1ncn2ccc(Br)cc12)c1cn(Cc2cn3cc(C4CC4)ccc3n2)c2cccnc12 [Example I-30, N-((7-bromoimidazo[1,5-a]pyridin-1-yl)methyl)-1-((6-cyclopropylimidazo[1,2-a]pyridin-2-yl)methyl)-1H-pyrrolo[3,2-b]pyridine-3-carboxamide] | 1 to 10 nM |

Same assay, conditions: 500 pM activated kallikrein enzyme, 300 uM Pro-Phe-Arg-7-amido-4-methylcoumarin substrate, 30 min preincubation, 10 min at RT; read-out: Primary Dose Response Assay: Average EC50

| SMILES | EC50 |
| --- | --- |
| O=C(NCc1ncn2ccc(Cl)cc12)c1cnn(Cc2cc3ncc(C4CC4)cc3[nH]2)c1 [Example I-84, N-((7-chloroimidazo[1,5-a]pyridin-1-yl)methyl)-1-((6-cyclopropyl-1H-pyrrolo[3,2-b]pyridin-2-yl)methyl)-1H-pyrazole-4-carboxamide] | 10 to 100 nM |
| CC(NC(=O)c1cnn(Cc2cn3cc(C4CC4)ccc3n2)c1)c1ncn2ccc(Br)cc12 (stereo not drawn) [Example I-74, N-(1-(7-bromoimidazo[1,5-a]pyridin-1-yl)ethyl)-1-((6-cyclopropylimidazo[1,2-a]pyridin-2-yl)methyl)-1H-pyrazole-4-carboxamide] | 1 to 10 nM |
| O=C(NCc1ncn2ccc(Cl)cc12)c1nnc(Cc2cn3cc(C4CC4)ccc3n2)[nH]1 [Example I-161, N-((7-chloroimidazo[1,5-a]pyridin-1-yl)methyl)-5-((6-cyclopropylimidazo[1,2-a]pyridin-2-yl)methyl)-4H-1,2,4-triazole-3-carboxamide] | 1 to 10 nM |
| Cc1cc2nc(Cn3cc(C(=O)NCc4ncn5ccc(Cl)cc45)cn3)cn2cc1Br [Example I-28, 1-((6-bromo-7-methylimidazo[1,2-a]pyridin-2-yl)methyl)-N-((7-chloroimidazo[1,5-a]pyridin-1-yl)methyl)-1H-pyrazole-4-carboxamide] | 1 to 10 nM |
| O=C(NCc1ncn2ccc(Br)cc12)c1cn(Cc2cn3cc(C4CC4)ccc3n2)nn1 [Example I-303, N-((7-bromoimidazo[1,5-a]pyridin-1-yl)methyl)-1-((6-cyclopropylimidazo[1,2-a]pyridin-2-yl)methyl)-1H-1,2,3-triazole-4-carboxamide] | < 1 nM |
| O=C(NCc1ncn2ccc(Br)cc12)c1cnn(Cc2cn3c(F)c(C4CC4)ccc3n2)c1 [Example I-60, N-((7-bromoimidazo[1,5-a]pyridin-1-yl)methyl)-1-((6-cyclopropyl-5-fluoroimidazo[1,2-a]pyridin-2-yl)methyl)-1H-pyrazole-4-carboxamide] | < 1 nM |
| O=C(NCc1ncn2ccc(Cl)c(F)c12)c1cnn(Cc2cn3nc(C4CC4)ccc3n2)c1 [Example I-146, N-((7-chloro-8-fluoroimidazo[1,5-a]pyridin-1-yl)methyl)-1-((6-cyclopropylimidazo[1,2-b]pyridazin-2-yl)methyl)-1H-pyrazole-4-carboxamide] | < 1 nM |
| O=C(NCc1ncn2ccc(Br)cc12)c1nnc(Cc2cn3cc(C4CC4)ccc3n2)o1 [Example I-52, N-((7-bromoimidazo[1,5-a]pyridin-1-yl)methyl)-5-((6-cyclopropylimidazo[1,2-a]pyridin-2-yl)methyl)-1,3,4-oxadiazole-2-carboxamide] | < 1 nM |
| O=C(NCc1ncn2ccc(Br)cc12)c1cnn(Cc2cn3cc(C4CC4)c(Cl)cc3n2)c1 [Example I-25, N-((7-bromoimidazo[1,5-a]pyridin-1-yl)methyl)-1-((7-chloro-6-cyclopropylimidazo[1,2-a]pyridin-2-yl)methyl)-1H-pyrazole-4-carboxamide] | 1 to 10 nM |
| Nc1ccc(C2CC2)c2nc(Cn3cc(C(=O)NCc4ncn5ccc(Cl)cc45)cn3)cn12 [Example I-89, 1-((5-amino-8-cyclopropylimidazo[1,2-a]pyridin-2-yl)methyl)-N-((7-chloroimidazo[1,5-a]pyridin-1-yl)methyl)-1H-pyrazole-4-carboxamide] | 100 to 2000 nM |
| O=C(NCc1ncn2ccc(Cl)cc12)c1cnn(Cc2cn3cc(C4CC4)cc(C(=O)O)c3n2)c1 [Example I-72, 2-((4-(((7-chloroimidazo[1,5-a]pyridin-1-yl)methyl)carbamoyl)-1H-pyrazol-1-yl)methyl)-6-cyclopropylimidazo[1,2-a]pyridine-8-carboxylic acid] | 1 to 10 nM |
| CC(=O)c1cc(C2CC2)cn2cc(Cn3cc(C(=O)NCc4ncn5ccc(Cl)cc45)cn3)nc12 [Example I-104a, 1-((8-acetyl-6-cyclopropylimidazo[1,2-a]pyridin-2-yl)methyl)-N-((7-chloroimidazo[1,5-a]pyridin-1-yl)methyl)-1H-pyrazole-4-carboxamide] | < 1 nM |
| Cc1ccc2nc(Cn3cc(C(=O)NCc4ncn5ccc(Br)cc45)cn3)cn2c1C [Example I-26, N-((7-bromoimidazo[1,5-a]pyridin-1-yl)methyl)-1-((5,6-dimethylimidazo[1,2-a]pyridin-2-yl)methyl)-1H-pyrazole-4-carboxamide] | 1 to 10 nM |
| O=C(NCc1ncn2ccc(Cl)cc12)c1cn(Cc2cn3cc(C4CC4)ccc3n2)nn1 [Example I-80, N-((7-chloroimidazo[1,5-a]pyridin-1-yl)methyl)-1-((6-cyclopropylimidazo[1,2-a]pyridin-2-yl)methyl)-1H-1,2,3-triazole-4-carboxamide] | < 1 nM |
| O=C(NCc1ncn2ccc(Cl)cc12)c1ncn(Cc2cn3cc(C4CC4)ccc3n2)n1 [Example I-152, N-((7-chloroimidazo[1,5-a]pyridin-1-yl)methyl)-1-((6-cyclopropylimidazo[1,2-a]pyridin-2-yl)methyl)-1H-1,2,4-triazole-3-carboxamide] | < 1 nM |
| O=C(NCc1ncn2ccc(Cl)c(F)c12)c1cn(Cc2cn3cc(C4CC4)cc(N4CCOC4=O)c3n2)nn1 [Example I-216, N-((7-chloro-8-fluoroimidazo[1,5-a]pyridin-1-yl)methyl)-1-((6-cyclopropyl-8-(2-oxooxazolidin-3-yl)imidazo[1,2-a]pyridin-2-yl)methyl)-1H-1,2,3-triazole-4-carboxamide] | < 1 nM |
| O=C(NCc1ncn2ccc(Cl)cc12)c1cnn(Cc2cn3cccc(C4(C(=O)O)CC4)c3n2)c1 [Example I-116, 1-(2-((4-(((7-chloroimidazo[1,5-a]pyridin-1-yl)methyl)carbamoyl)-1H-pyrazol-1-yl)methyl)imidazo[1,2-a]pyridin-8-yl)cyclopropane-1-carboxylic acid] | 1 to 10 nM |
| NCCOCc1cc(C2CC2)cn2cc(Cn3cc(C(=O)NCc4ncn5ccc(Cl)c(F)c45)nn3)nc12 [Example I-302, 1-((8-((2-aminoethoxy)methyl)-6-cyclopropylimidazo[1,2-a]pyridin-2-yl)methyl)-N-((7-chloro-8-fluoroimidazo[1,5-a]pyridin-1-yl)methyl)-1H-1,2,3-triazole-4-carboxamide] | < 1 nM |
| O=C(O)c1cnn(-c2cc(C3CC3)cn3cc(Cn4cc(C(=O)NCc5ncn6ccc(Cl)c(F)c56)nn4)nc23)c1 [Example I-230, 1-(2-((4-(((7-chloro-8-fluoroimidazo[1,5-a]pyridin-1-yl)methyl)carbamoyl)-1H-1,2,3-triazol-1-yl)methyl)-6-cyclopropylimidazo[1,2-a]pyridin-8-yl)-1H-pyrazole-4-carboxylic acid] | < 1 nM |
| O=C(NCc1ncn2ccc(Cl)c(F)c12)c1cn(Cc2cn3nc(C4CC4)ccc3n2)cn1 [Example I-288, N-((7-chloro-8-fluoroimidazo[1,5-a]pyridin-1-yl)methyl)-1-((6-cyclopropylimidazo[1,2-b]pyridazin-2-yl)methyl)-1H-imidazole-4-carboxamide] | < 1 nM |
